Source: US20100298141A1, “SUBSTITUTED PYRIDINE N-OXIDE HERBICIDES” (E. I. DU PONT DE NEMOURS AND COMPANY, priority 2007, published 2010)

Experiments:
[1] = test system: cocklebur; test: Test C pre-/postemergence test; type: in vivo, Xanthium strumarium; conditions: for Plant response rating (0 to 100), Cocklebur: 250 g ai/ha
Procedure, shortened: (§1)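 Test chemicals were formulated with surfactant in a non-phytotoxic solvent and sprayed both on freshly planted seeds (preemergence) and on 1- to 4-leaf plants of 2–18 cm (postemergence). Flooded-paddy pots received compound directly into 3 cm of standing water, maintained for the test.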

[2] = test system: morningglory; test: Test C pre-/postemergence test; type: in vivo, Ipomoea coccinea; conditions: for Plant response rating (0 to 100), Morningglory: 250 g ai/ha
Procedure, shortened: as §1

[3] = test system: redroot pigweed; test: Test A pre-/postemergence greenhouse test; type: in vivo, Amaranthus retroflexus; conditions: for Pigweed plant response rating: 0 to 100 scale; for Plant response rating, Pigweed: 0 to 100 scale where 0 is no effect and 100 is complete control
Procedure, shortened: (§2)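 Pre: directed soil spray on seeded loam/sand. Post: foliar spray, plants 2–10 cm, 1–2 leaf stage, applied concurrently. Vehicle: non-phytotoxic solvent + surfactant. Greenhouse ~10 d; visual injury rating vs untreated controls.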

[4] = test system: common (oilseed) sunflower; test: Test C pre-/postemergence test; type: in vivo, Helianthus annuus; conditions: for Sunflower plant response rating: preemergence, scale 0 (no effect) to 100 (complete control); for Plant response rating (0 to 100), Sunflower: Preemergence, 250 g ai/ha
Procedure, shortened: as §1

[5] = test system: rice; test: Test C flooded paddy test; type: in vivo, Oryza sativa; conditions: Flood
Procedure, shortened: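 Flooded 3 cm over soil; compound into paddy water; depth kept constant. Greenhouse 13–15 d.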

[6] = test system: johnsongrass; test: Test C pre-/postemergence test; type: in vivo, Sorghum halepense; conditions: for Plant response rating (0 to 100), Johnsongrass: 250 g ai/ha
Procedure, shortened: as §1

[7] = test system: bermudagrass; test: Test C pre-/postemergence test; type: in vivo, Cynodon dactylon; conditions: for Plant response rating (0 to 100), Bermudagrass: 250 g ai/ha
Procedure, shortened: as §1

[8] = test system: corn; test: Test C pre-/postemergence test; type: in vivo, Zea mays; conditions: for Plant response rating (0 to 100), Corn: 250 g ai/ha
Procedure, shortened: as §1

[9] = test system: wheat; test: Test C pre-/postemergence test; type: in vivo, Triticum aestivum; conditions: for Wheat plant response rating: preemergence, scale 0 (no effect) to 100 (complete control); for Plant response rating (0 to 100), Wheat: Preemergence, 250 g ai/ha
Procedure, shortened: as §1

[10] = test system: wild oat; test: Test C pre-/postemergence test; type: in vivo, Avena fatua; conditions: for Plant response rating (0 to 100), Oat, Wild: 250 g ai/ha
Procedure, shortened: as §1

[11] = test system: Italian ryegrass; test: Test C pre-/postemergence test; type: in vivo, Lolium multiflorum; conditions: for Plant response rating (0 to 100), Ryegrass, Italian: 250 g ai/ha
Procedure, shortened: as §1

[12] = test system: kochia; test: Test C pre-/postemergence test; type: in vivo, Kochia scoparia; conditions: for Plant response rating (0 to 100), Kochia: 250 g ai/ha
Procedure, shortened: as §1

[13] = test system: giant foxtail; test: Test C pre-/postemergence test; type: in vivo, Setaria faberii; conditions: for Plant response rating (0 to 100), Foxtail, Giant: 250 g ai/ha
Procedure, shortened: as §1

[14] = test system: yellow nutsedge; test: Test C pre-/postemergence test; type: in vivo, Cyperus esculentus; conditions: for Plant response rating (0 to 100), Nutsedge, Yellow: 250 g ai/ha
Procedure, shortened: as §1

[15] = test system: morningglory; test: Test A pre-/postemergence greenhouse test; type: in vivo, Ipomoea spp.; conditions: for Morningglory plant response rating: 0 to 100 scale; for Plant response rating, Morningglory: 0 to 100 scale where 0 is no effect and 100 is complete control
Procedure, shortened: as §2

[16] = test system: corn; test: Test A pre-/postemergence greenhouse test; type: in vivo, Zea mays; conditions: for Corn plant response rating: 0 to 100 scale; for Plant response rating, Corn: 0 to 100 scale where 0 is no effect and 100 is complete control
Procedure, shortened: as §2

[17] = test system: eastern black nightshade; test: Test C pre-/postemergence test; type: in vivo, Solanum ptycanthum
Procedure, shortened: as §1

[18] = 31 g ai/ha, Preemergence, scale 0 to 100
[19] = 62 g ai/ha, preemergence, scale 0 (no effect) to 100 (complete control)
[20] = preemergence, 125 g ai/ha, scale 0 (no effect) to 100 (complete control)
[21] = Postemergence, 125 g ai/ha, 0 is no effect, 100 is complete control
[22] = Postemergence, 500 g ai/ha, 0 is no effect, 100 is complete control
[23] = Preemergence, 125 g ai/ha, 0 no effect, 100 complete control
[24] = 31 g ai/ha, scale 0 to 100 (0 no effect, 100 complete control)
[25] = 62 g ai/ha, scale 0 to 100, 0 no effect, 100 complete control, 13 to 15 days
[26] = 125 g ai/ha, scale 0 to 100, 0 no effect, 100 complete control, 13 to 15 days
[27] = 250 g ai/ha, scale 0 to 100 (0 no effect, 100 complete control)

Compound: Cn1nc(C(F)(F)F)c(C[S+]([O-])c2cccc[n+]2[O-])c1Cl (stereo not shown) [Compound 8]
- Cocklebur plant response rating [1, 18]: 0
- Cocklebur plant response rating [1, 19]: 0
- Plant response rating (0 to 100), Cocklebur ([1]; Preemergence): 5
- Cocklebur plant response rating [1, 20]: 0
- Morningglory plant response rating [2, 18]: 5
- Morningglory plant response rating [2, 19]: 90
- Plant response rating (0 to 100), Morningglory ([2]; Preemergence): 100
- Morningglory plant response rating [2, 20]: 100
- Pigweed plant response rating [3, 21]: 20
- Pigweed plant response rating [3, 22]: 60
- Pigweed plant response rating [3, 23]: 100
- Plant response rating, Pigweed ([3]; Preemergence, 500 g ai/ha): 100
- Sunflower plant response rating ([4]; 62 g ai/ha): 30
- Plant response rating (0 to 100), Sunflower [4]: 100
- Sunflower plant response rating ([4]; 125 g ai/ha): 60
- Plant response rating, Rice [5, 24]: 0
- Plant response rating, Rice [5, 25]: 0
- Plant response rating, Rice [5, 26]: 0
- Plant response rating, Rice [5, 27]: 20
- Johnsongrass plant response rating [6, 18]: 80
- Johnsongrass plant response rating [6, 19]: 85
- Plant response rating (0 to 100), Johnsongrass ([6]; Preemergence): 100
- Johnsongrass plant response rating [6, 20]: 85
- Bermudagrass plant response rating [7, 18]: 80
- Bermudagrass plant response rating [7, 19]: 100
- Plant response rating (0 to 100), Bermudagrass ([7]; Preemergence): 100
- Bermudagrass plant response rating [7, 20]: 100
- Corn plant response rating [8, 18]: 60
- Corn plant response rating [8, 19]: 80
- Plant response rating (0 to 100), Corn ([8]; Preemergence): 98
- Corn plant response rating [8, 20]: 95
- Wheat plant response rating ([9]; 62 g ai/ha): 30
- Plant response rating (0 to 100), Wheat [9]: 80
- Wheat plant response rating ([9]; 125 g ai/ha): 50
- Oat, Wild plant response rating [10, 18]: 0
- Oat, Wild plant response rating [10, 19]: 20
- Plant response rating (0 to 100), Oat, Wild ([10]; Preemergence): 60
- Oat, Wild plant response rating [10, 20]: 40
- Ryegrass, Italian plant response rating [11, 18]: 0
- Ryegrass, Italian plant response rating [11, 19]: 50
- Plant response rating (0 to 100), Ryegrass, Italian ([11]; Preemergence): 95
- Ryegrass, Italian plant response rating [11, 20]: 70
- Kochia plant response rating [12, 18]: 40
- Kochia plant response rating [12, 19]: 45
- Plant response rating (0 to 100), Kochia ([12]; Preemergence): 100
- Kochia plant response rating [12, 20]: 100
- Foxtail, Giant plant response rating [13, 18]: 85
- Foxtail, Giant plant response rating [13, 19]: 98
- Plant response rating (0 to 100), Foxtail, Giant ([13]; Preemergence): 100
- Foxtail, Giant plant response rating [13, 20]: 100
- Nutsedge, Yellow plant response rating [14, 18]: 60
- Nutsedge, Yellow plant response rating [14, 19]: 80
- Plant response rating (0 to 100), Nutsedge, Yellow ([14]; Preemergence): 100
- Nutsedge, Yellow plant response rating [14, 20]: 100
- Morningglory plant response rating [15, 21]: 60
- Morningglory plant response rating [15, 22]: 70
- Morningglory plant response rating [15, 23]: 90
- Plant response rating, Morningglory ([15]; Preemergence, 500 g ai/ha): 90
- Corn plant response rating [16, 21]: 50
- Corn plant response rating [16, 22]: 60
- Corn plant response rating [16, 23]: 20
- Plant response rating, Corn ([16]; Preemergence, 500 g ai/ha): 70
- Nightshade plant response rating [17, 18]: 80
- Nightshade plant response rating [17, 19]: 85
- Plant response rating (0 to 100), Nightshade ([17]; Preemergence, 250 g ai/ha): 100
- Nightshade plant response rating [17, 20]: 100

Compound: Cn1nc(C(F)(F)F)c(CS(=O)(=O)c2cccc[n+]2[O-])c1Cl [Compound 9]
- Cocklebur plant response rating [1, 18]: 0
- Plant response rating (0 to 100), Cocklebur ([1]; Preemergence): 0
- Cocklebur plant response rating [1, 20]: 0
- Morningglory plant response rating [2, 18]: 0
- Plant response rating (0 to 100), Morningglory ([2]; Preemergence): 100
- Morningglory plant response rating [2, 20]: 90
- Pigweed plant response rating [3, 21]: 10
- Pigweed plant response rating [3, 22]: 60
- Pigweed plant response rating [3, 23]: 100
- Plant response rating, Pigweed ([3]; Preemergence, 500 g ai/ha): 100
- Plant response rating (0 to 100), Sunflower [4]: 70
- Sunflower plant response rating ([4]; 125 g ai/ha): 5
- Plant response rating, Rice [5, 24]: 10
- Plant response rating, Rice [5, 25]: 40
- Plant response rating, Rice [5, 26]: 70
- Plant response rating, Rice [5, 27]: 70
- Johnsongrass plant response rating [6, 18]: 45
- Plant response rating (0 to 100), Johnsongrass ([6]; Preemergence): 100
- Johnsongrass plant response rating [6, 20]: 100
- Bermudagrass plant response rating [7, 18]: 98
- Plant response rating (0 to 100), Bermudagrass ([7]; Preemergence): 100
- Bermudagrass plant response rating [7, 20]: 100
- Corn plant response rating [8, 18]: 20
- Plant response rating (0 to 100), Corn ([8]; Preemergence): 98
- Corn plant response rating [8, 20]: 98
- Wheat plant response rating ([9]; 62 g ai/ha): 30
- Plant response rating (0 to 100), Wheat [9]: 70
- Wheat plant response rating ([9]; 125 g ai/ha): 45
- Oat, Wild plant response rating [10, 18]: 0
- Oat, Wild plant response rating [10, 19]: 0
- Plant response rating (0 to 100), Oat, Wild ([10]; Preemergence): 55
- Oat, Wild plant response rating [10, 20]: 40
- Ryegrass, Italian plant response rating [11, 18]: 0
- Ryegrass, Italian plant response rating [11, 19]: 50
- Plant response rating (0 to 100), Ryegrass, Italian ([11]; Preemergence): 65
- Ryegrass, Italian plant response rating [11, 20]: 65
- Kochia plant response rating [12, 18]: 0
- Plant response rating (0 to 100), Kochia ([12]; Preemergence): 100
- Kochia plant response rating [12, 20]: 100
- Foxtail, Giant plant response rating [13, 18]: 85
- Plant response rating (0 to 100), Foxtail, Giant ([13]; Preemergence): 100
- Foxtail, Giant plant response rating [13, 20]: 100
- Nutsedge, Yellow plant response rating [14, 18]: 40
- Plant response rating (0 to 100), Nutsedge, Yellow ([14]; Preemergence): 100
- Nutsedge, Yellow plant response rating [14, 20]: 100
- Morningglory plant response rating [15, 21]: 20
- Morningglory plant response rating [15, 22]: 70
- Morningglory plant response rating [15, 23]: 40
- Plant response rating, Morningglory ([15]; Preemergence, 500 g ai/ha): 70
- Corn plant response rating [16, 21]: 20
- Corn plant response rating [16, 22]: 60
- Corn plant response rating [16, 23]: 40
- Plant response rating, Corn ([16]; Preemergence, 500 g ai/ha): 60
- Nightshade plant response rating [17, 18]: 80
- Nightshade plant response rating [17, 20]: 100
